One assay concerns Bcap-37. Kind of assay: MTT growth inhibition, Bcap-37. The format is cell-based. The note with it: Homo sapiens, Bcap37, Mammary Carcinoma, MTT assay. How it is done:
(§1) For cell viability assay, cells were seeded in wells of 96-well plates for 2 days and then treated with different concentrations of mushroom extract fractions or purified verticillin A for 2 days. The cells were then incubated with MTT (3-(4,5-dimethylthiazol-2-yl)-2,5-diphenyltetrazolium bromide) using the MTT assay kit (ATCC, Manassas, Va.) according to the manufacturer's instructions.
(§2) To determine whether verticillin A inhibits other types of tumor cell growth, Mammary carcinoma (Bcap-37 and MCF-7), heptocarcinoma (HepG2), cervical (HeLa), liver (SMMC-7721), lung (SPC-A1) cancer cells and T cell leukemia (Jurkat) were cultured in the presence of different concentrations of verticillin A and examined for the efforts of verticillin A on the growth rate of these tumor cells in vitro.

A further assay deals with MCF-7. Kind of assay: MTT growth inhibition, MCF-7. It is filed as cell-based. As to conditions: Homo sapiens, MCF7, Mammary Carcinoma, MTT assay. Here is the method: as §1, §2
The subject of assay [1] is HepG2 cells. Kind of assay: MTT growth inhibition, HepG2. It is filed as cell-based, human. How it is done:
as §1
(§3) The growth inhibitory effort of the purified verticillin A was examined on HepG2 cells. Tumor cells were cultured in the presence of different concentrations of verticillin A and analyzed for the growth by MTT assay 24 and 72 h later, respectively. […] To determine whether the growth inhibitory effect is due to increased tumor cell death, genomic DNA was isolated from the treated tumor cells and analyzed by agarose gel electrophoresis.
as §2

Another assay has as its system SPC-A1. Nature of the assay: MTT growth inhibition, SPC-A1. It is filed as cell-based. As to conditions: SPCA1, Lung Carcinoma, MTT assay. How it is done:
as §1, §2
A general note: Formazan colour is commonly taken as a measure of viable cells.

Assay [2] concerns multiple types of tumor cell lines. Kind of assay: Growth inhibition of multiple types of tumor cell lines. The format is cell-based. Here is the method:
as §1, §2

The subject of assay [3] is HepG2 cells. Nature of the assay: DNA fragmentation assay. The format is cell-based, human. As to conditions: HepG2, agarose gel electrophoresis. How it is done:
Tumor cells were lysed in lysis buffer (5 mM Tris-HCl, pH 8.0, 100 mM Ethylenediaminetetraacetic acid (EDTA), 1% (w/v) Sodium dodecyl sulfate (SDS), and proteinase K) at 45° C. for 2 h. RNA was removed by incubation with RNase A. Genomic DNA was extracted by phenol/chloroform/isoamyl alcohol (25:24:1) and precipitated with ethanol. The purified genomic DNA was then analyzed by electrophoresis in a 1.2% agarose gel.
as §3

The test system of assay [4] is SW620 cells. Nature of the assay: Apoptosis and TRAIL sensitization of SW620 cells (PI/annexin V flow cytometry). The format is cell-based, human. How it is done:
(§4) Cells were seeded in wells of 96-well plates for 2 days and then treated with different concentrations of mushroom extract fractions or purified verticillin A for 2 days. The cells were stained with propidium iodide (PI) (Trevigen, Gaithersburg, Md.) or PI plus annexin V-Alex Fluor 647 (Biolegend, San Diego, Calif.) and analyzed by flow cytometry.
SW620 is a metastatic human colon carcinoma cell line that is resistant to TRAIL-induced apoptosis (Voelkel-Johnson C, et al. Mol Cancer Ther 2005 4(9):1320-7).
(Flow cytometry measures light scatter and fluorescence of single cells or particles in a stream.)

For assay [5], the system named is sarcoma (MC-WST-724), and mammary carcinoma (MCF-7). Kind of assay: TRAIL co-treatment apoptosis in other tumor cell types. The format is cell-based. The note with it: co-treatment with verticillin A and TRAIL. How it is done: as §4
The sensitization effects of verticillin A was examined in other types of tumor cells.

For assay [6], the system named is SW620 cells. Kind of assay: Cytochrome C release. As to conditions: SW620, combinational treatment of verticillin A and TRAIL. It is filed as cell-based, human. Here is the method:
Tumor cells were lysed in lysis buffer containing 20 mM HEPES, pH 7.4, 20 mM NaCl, 10% glycerol, 1% Triton X-100, and a protease inhibitor cocktail (Calbiochem, La Jolla, Calif.). Cellular proteins were separated by 12% or 4-20% SDS-PAGE gradient gels, transferred to Immobilon-P membranes (Millipore, Bedford, Mass.) or nitrocellulose (Bio-Rad, Hercules, Calif.), and probed with the following primary antibodies: anti-FLIP (Cell Sinnaling, Danvers, Mass.) at 1:250; anti-survivin (Santa Cruz Biotech) at 1:100; anti-cIAP1 (cell signaling) at 1:250; anti-xIAP (cell Signaling) at 1:500; anti-Bad (Cell Signaling) at 1:1000; anti-Bax (Cell Signaling) at 1:2000; anti-Mcl-1 (Santa Cruz) at 1:100); anti-A-CDase (BD Biosciences) at 1:1000; anti-CytC (BD Biosciences) at 1:1000; and β-actin (Sigma, St Louis, Mo.) at 1:8000. The blots were then washed and incubated with horseradish peroxidase-conjugated anti-goat (Santa Cruz Biotech), anti-mouse or rabbit (Amersham-Pharmacia, Piscataway, N.J.) IgGs. Blots were detected using the ECL Plus Western detection kit (Amersham Pharmacia Biotech).

Assay [7] relates to SW620 cells. Kind of assay: Sensitization to FasL-induced apoptosis. The format is cell-based, human. As to conditions: SW620, verticillin A pre-treatment then recombinant FasL. How it is done:
Because the Fas-mediated apoptosis and TRAIL-induced apoptosis share similar signaling pathways, it was next tested whether Verticillin A also sensitizes tumor cells to FasL-induced apoptosis. SW620 cells were treated with verticillin A, followed by treatment with recombinant FasL.

The test system of a further assay is TET1. Nature of the assay: TET1 expression, RT-PCR. It is filed as cell-based, human. As to conditions: colon carcinoma cells, dose-dependent. How it is done: FIG. 11A is an acrylamide gel showing that LS411N cells were treated with Verticillin A at the indicated concentrations for 24 h and analyzed for TET1, TET2 and TET3 level by RT-PCR.
TET1 is an enzyme with very recently identified function in converting 5-methylcytosine (5mC) to 5-hydroxylmethylcytosine (5hmC), and eventually to unmodified Cytosine to reverse DNA methylation (Veron N, Peters A H. Epigenetics: Tet proteins in the limelight. Nature 2011; 473:293-4; Ito et al. Tet proteins can convert 5-methylcytosine to 5-formylcytosine and 5-carboxylcytosine. Science 2011; 333:1300-3; Guo et al. Hydroxylation of 5-methylcytosine by TET1 promotes active DNA demethylation in the adult brain. Cell 2011; 145:423-34). […] Thus, Verticillin A is a small molecule TET1 activator. Verticillin A appears to be the first reported small molecule TET1 activator.

For orientation: IC50 means the concentration that inhibits the measured activity by half. In the case of `CN1C(=O)[C@]23SS[C@]1(C)C(=O)N2C1Nc2ccccc2[C@@]1(C12c4ccccc4NC1N1C(=O)[C@@]4(C)SS[C@]1(C(=O)N4C)[C@H]2O)[C@@H]3O` (some centres unmarked) [Verticillin A], the IC50 with Bcap-37 was 119 nM; in the assay on MCF-7, 64 nM; in the assay on HepG2 cells [1] (Homo sapiens, Hepatoma, HepG2, MTT assay), 62 nM; in the assay on SPC-A1, 30 nM; in assay [2] (span over the tumor cell lines of Table 1, read-out: IC50 for multiple types of cancer cells), below 200 nM. Besides, in the assay with HepG2 cells [1] (HepG2, MTT assay 24 and 72 h), the “concentration at which the inhibitory effect reached plateau” value was in the range of 100 to 150 nM. For the same molecule, the “lowest concentration exhibiting growth inhibitory effect” value in the assay with HepG2 cells [1] (HepG2, MTT assay 24 and 72 h) is reported as 10 nM. Besides, in the assay on HepG2 cells [1] (purified compound, cytotoxicity screen), the “inhibitory activity against HepG2 cells” value was “potent inhibitory activity”. Besides, in [2] (Bcap-37, MCF-7, HepG2, HeLa, SMMC-7721, SPC-A1, Jurkat), the “growth of tumor cells in vitro” value was “significantly inhibited the growth of all these tumor cells”. For the same molecule, the “genomic DNA fragmentation” value with HepG2 cells [3] is on record as “induces genomic DNA fragmentation”. In the assay on SW620 cells [4] (SW620, 10 nM verticillin A in combination with TRAIL), the “sensitization to TRAIL-induced apoptosis” value was “dramatically sensitized SW620 cells to TRAIL-induced apoptosis”. In addition, the “apoptosis induction, single agent” value in the assay with SW620 cells [4] (SW620, agent alone) is on record as “induced significant apoptosis”. Further, the “concentration that overcomes TRAIL resistance” value with SW620 cells [4] (human cancer cells) was found to be 10 nM. The “apoptosis rate versus single agent alone” value in assay [5] was “significantly increased the apoptosis rate”. For the same molecule, the “cytochrome C release” value with SW620 cells [6] was “dramatically increased cytochrome C release”. For the same molecule, the “sensitization to FasL-induced apoptosis” value in the assay on SW620 cells [7] is recorded as “significantly increases tumor cells to FasL-induced apoptosis”. Moreover, in the assay with TET1, the TET1 expression entry is reported as “up-regulates TET1 expression”.

The values above are taken from US20120219568A1, “EPIDITHIODIOXO[…] USES THEREOF IN TREATING CANCER” (priority 2011, published 2012).
